Experiments:
Assay in all cases: relative viability (nuclei count vs DMSO), 5 days (fraction); higher = more cells survive
[1] = system: COR-L 105
In short: (§1)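 Lung cancer cell lines, seeded in 1536-well plates, were treated the following day by pin tool with a single drug or with five library-drug doses (not always all listed) in √10 steps on top of a fixed anchor-drug dose. Cells were fixed and nuclei stained in one step after 5 days, and nuclei were counted. Relative viability is the nuclei count for treated wells divided by that for vehicle wells, reported as medians of duplicate plates.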

[2] = system: NCI-H1975
In short: as §1

[3] = system: NCI-H2009
In short: as §1

[4] = system: ChaGo-K-1
In short: as §1

[5] = system: NCI-H2087
In short: as §1

[6] = system: NCI-H1993
In short: as §1

[7] = system: NCI-H1792
In short: as §1

[8] = system: NCI-H2228
In short: as §1

[9] = system: NCI-H441
In short: as §1

[10] = system: NCI-H1355
In short: as §1

[11] = system: H3255
In short: as §1

[12] = system: EPLC-272H
In short: as §1

[13] = system: HCC-366
In short: as §1

[14] = system: ABC-1
In short: as §1

[15] = system: NCI-H322M
In short: as §1

[16] = system: CAL-12T
In short: as §1

[17] = system: EKVX
In short: as §1

[18] = system: HCC-827
In short: as §1

[19] = system: NCI-H460
In short: as §1

[20] = system: NCI-H2085
In short: as §1

## Nc1cccc2c1CN(C1CCC(=O)NC1=O)C2=O (stereo not given) [Lenalidomide] + CC(C)C[C@H](NC(=O)[C@H](Cc1ccccc1)NC(=O)c1cnccn1)B(O)O [Bortezomib] (partner 0.002 µM)
[1]; first compound 0.253 µM
  relative viability: 0.792
[1]; first compound 0.8 µM
  relative viability: 0.824
[1]; first compound 2.53 µM
  relative viability: 0.863
[1]; first compound 8 µM
  relative viability: 0.797
[2]; first compound 0.253 µM
  relative viability: 0.447
[2]; first compound 0.8 µM
  relative viability: 0.341
[2]; first compound 2.53 µM
  relative viability: 0.412
[2]; first compound 8 µM
  relative viability: 0.379
[3]; first compound 0.253 µM
  relative viability: 0.929
[3]; first compound 0.8 µM
  relative viability: 1.02
[3]; first compound 2.53 µM
  relative viability: 1.22
[3]; first compound 8 µM
  relative viability: 1.01
[4]; first compound 0.253 µM
  relative viability: 1.07
[4]; first compound 2.53 µM
  relative viability: 1
[4]; first compound 8 µM
  relative viability: 1.29
[5]; first compound 0.253 µM
  relative viability: 0.772
[5]; first compound 0.8 µM
  relative viability: 0.656
[5]; first compound 2.53 µM
  relative viability: 0.922
[5]; first compound 8 µM
  relative viability: 0.835
[6]; first compound 0.253 µM
  relative viability: 1.07
[6]; first compound 0.8 µM
  relative viability: 0.951
[6]; first compound 2.53 µM
  relative viability: 1.12
[6]; first compound 8 µM
  relative viability: 0.675
[7]; first compound 0.253 µM
  relative viability: 1
[7]; first compound 0.8 µM
  relative viability: 0.773
[7]; first compound 2.53 µM
  relative viability: 0.96
[7]; first compound 8 µM
  relative viability: 0.964
[8]; first compound 0.253 µM
  relative viability: 1
[8]; first compound 0.8 µM
  relative viability: 0.986
[8]; first compound 2.53 µM
  relative viability: 1.12
[8]; first compound 8 µM
  relative viability: 0.942
[9]; first compound 0.253 µM
  relative viability: 0.347
[9]; first compound 0.8 µM
  relative viability: 0.383
[9]; first compound 2.53 µM
  relative viability: 0.529
[9]; first compound 8 µM
  relative viability: 0.485
[10]; first compound 0.253 µM
  relative viability: 1.23
[10]; first compound 0.8 µM
  relative viability: 0.426
[10]; first compound 2.53 µM
  relative viability: 1.29
[10]; first compound 8 µM
  relative viability: 1.03
[11]; first compound 0.253 µM
  relative viability: 0.886
[11]; first compound 0.8 µM
  relative viability: 0.612
[11]; first compound 2.53 µM
  relative viability: 0.874
[11]; first compound 8 µM
  relative viability: 0.828
[12]; first compound 0.253 µM
  relative viability: 0.876
[12]; first compound 2.53 µM
  relative viability: 1.03
[12]; first compound 8 µM
  relative viability: 0.999
[13]; first compound 0.253 µM
  relative viability: 0.985
[13]; first compound 0.8 µM
  relative viability: 1.03
[13]; first compound 2.53 µM
  relative viability: 1.08
[13]; first compound 8 µM
  relative viability: 1.05
[14]; first compound 0.253 µM
  relative viability: 0.302
[14]; first compound 0.8 µM
  relative viability: 0.297
[14]; first compound 2.53 µM
  relative viability: 0.278
[14]; first compound 8 µM
  relative viability: 0.285
[15]; first compound 0.253 µM
  relative viability: 1.18
[15]; first compound 0.8 µM
  relative viability: 1.21
[15]; first compound 2.53 µM
  relative viability: 1.31
[15]; first compound 8 µM
  relative viability: 1.17
[16]; first compound 0.253 µM
  relative viability: 0.988
[16]; first compound 2.53 µM
  relative viability: 1.14
[16]; first compound 8 µM
  relative viability: 0.965
[17]; first compound 0.253 µM
  relative viability: 1.04
[17]; first compound 0.8 µM
  relative viability: 0.805
[17]; first compound 2.53 µM
  relative viability: 1.17
[17]; first compound 8 µM
  relative viability: 0.856
[18]; first compound 0.253 µM
  relative viability: 1.09
[18]; first compound 0.8 µM
  relative viability: 0.798
[18]; first compound 2.53 µM
  relative viability: 1.09
[18]; first compound 8 µM
  relative viability: 1.04
[19]; first compound 0.253 µM
  relative viability: 1.16
[19]; first compound 0.8 µM
  relative viability: 1.1
[19]; first compound 2.53 µM
  relative viability: 1.7
[19]; first compound 8 µM
  relative viability: 1.07
[20]; first compound 0.253 µM
  relative viability: 1.05
[20]; first compound 0.8 µM
  relative viability: 0.818
[20]; first compound 2.53 µM
  relative viability: 1.11
[20]; first compound 8 µM
  relative viability: 0.881

## CCNC(=O)c1noc(-c2cc(C(C)C)c(O)cc2O)c1-c1ccc(CN2CCOCC2)cc1 [Luminespib] + CC(C)C[C@H](NC(=O)[C@H](Cc1ccccc1)NC(=O)c1cnccn1)B(O)O [Bortezomib] (partner 0.002 µM)
[1]; first compound 0.002 µM
  relative viability: 0.992
[1]; first compound 0.006325 µM
  relative viability: 0.75
[1]; first compound 0.02 µM
  relative viability: 0.342
[1]; first compound 0.06325 µM
  relative viability: 0.176
[1]; first compound 0.2 µM
  relative viability: 0.206
[2]; first compound 0.002 µM
  relative viability: 0.444
[2]; first compound 0.006325 µM
  relative viability: 0.389
[2]; first compound 0.02 µM
  relative viability: 0.219
[2]; first compound 0.06325 µM
  relative viability: 0.149
[2]; first compound 0.2 µM
  relative viability: 0.119
[3]; first compound 0.002 µM
  relative viability: 1.16
[3]; first compound 0.006325 µM
  relative viability: 0.841
[3]; first compound 0.02 µM
  relative viability: 0.956
[3]; first compound 0.06325 µM
  relative viability: 0.0583
[3]; first compound 0.2 µM
  relative viability: 0.0609
[4]; first compound 0.002 µM
  relative viability: 1.11
[4]; first compound 0.02 µM
  relative viability: 0.998
[4]; first compound 0.06325 µM
  relative viability: 0.528
[4]; first compound 0.2 µM
  relative viability: 0.294
[5]; first compound 0.002 µM
  relative viability: 1.03
[5]; first compound 0.006325 µM
  relative viability: 0.676
[5]; first compound 0.02 µM
  relative viability: 0.796
[5]; first compound 0.06325 µM
  relative viability: 0.141
[5]; first compound 0.2 µM
  relative viability: 0.142
[6]; first compound 0.002 µM
  relative viability: 0.998
[6]; first compound 0.006325 µM
  relative viability: 1.12
[6]; first compound 0.02 µM
  relative viability: 0.68
[6]; first compound 0.06325 µM
  relative viability: 0.816
[6]; first compound 0.2 µM
  relative viability: 0.374
[7]; first compound 0.002 µM
  relative viability: 0.93
[7]; first compound 0.006325 µM
  relative viability: 0.888
[7]; first compound 0.02 µM
  relative viability: 0.633
[7]; first compound 0.06325 µM
  relative viability: 0.478
[7]; first compound 0.2 µM
  relative viability: 0.36
[8]; first compound 0.002 µM
  relative viability: 0.985
[8]; first compound 0.006325 µM
  relative viability: 0.952
[8]; first compound 0.02 µM
  relative viability: 0.166
[8]; first compound 0.06325 µM
  relative viability: 0.196
[8]; first compound 0.2 µM
  relative viability: 0.184
[9]; first compound 0.002 µM
  relative viability: 0.566
[9]; first compound 0.006325 µM
  relative viability: 0.446
[9]; first compound 0.02 µM
  relative viability: 0.236
[9]; first compound 0.06325 µM
  relative viability: 0.127
[9]; first compound 0.2 µM
  relative viability: 0.133
[10]; first compound 0.002 µM
  relative viability: 1.14
[10]; first compound 0.006325 µM
  relative viability: 1.12
[10]; first compound 0.02 µM
  relative viability: 0.571
[10]; first compound 0.06325 µM
  relative viability: 1
[10]; first compound 0.2 µM
  relative viability: 0.182
[11]; first compound 0.002 µM
  relative viability: 0.615
[11]; first compound 0.006325 µM
  relative viability: 0.466
[11]; first compound 0.02 µM
  relative viability: 0.472
[11]; first compound 0.06325 µM
  relative viability: 0.376
[11]; first compound 0.2 µM
  relative viability: 0.194
[12]; first compound 0.006325 µM
  relative viability: 0.83
[12]; first compound 0.02 µM
  relative viability: 0.678
[12]; first compound 0.06325 µM
  relative viability: 0.913
[12]; first compound 0.2 µM
  relative viability: 0.293
[13]; first compound 0.002 µM
  relative viability: 1.01
[13]; first compound 0.006325 µM
  relative viability: 1.01
[13]; first compound 0.02 µM
  relative viability: 0.474
[13]; first compound 0.06325 µM
  relative viability: 0.025
[13]; first compound 0.2 µM
  relative viability: 0.0174
[14]; first compound 0.002 µM
  relative viability: 0.258
[14]; first compound 0.006325 µM
  relative viability: 0.315
[14]; first compound 0.02 µM
  relative viability: 0.238
[14]; first compound 0.06325 µM
  relative viability: 0.267
[14]; first compound 0.2 µM
  relative viability: 0.255
[15]; first compound 0.002 µM
  relative viability: 1.21
[15]; first compound 0.006325 µM
  relative viability: 1.27
[15]; first compound 0.02 µM
  relative viability: 1.05
[15]; first compound 0.06325 µM
  relative viability: 1.32
[15]; first compound 0.2 µM
  relative viability: 0.814
[16]; first compound 0.002 µM
  relative viability: 1.04
[16]; first compound 0.006325 µM
  relative viability: 0.929
[16]; first compound 0.02 µM
  relative viability: 0.539
[16]; first compound 0.06325 µM
  relative viability: 0.147
[16]; first compound 0.2 µM
  relative viability: 0.149
[17]; first compound 0.002 µM
  relative viability: 0.998
[17]; first compound 0.006325 µM
  relative viability: 1.03
[17]; first compound 0.02 µM
  relative viability: 0.852
[17]; first compound 0.06325 µM
  relative viability: 0.824
[17]; first compound 0.2 µM
  relative viability: 0.0943
[18]; first compound 0.002 µM
  relative viability: 1.04
[18]; first compound 0.006325 µM
  relative viability: 0.999
[18]; first compound 0.02 µM
  relative viability: 1.11
[18]; first compound 0.06325 µM
  relative viability: 1.22
[18]; first compound 0.2 µM
  relative viability: 0.66
[19]; first compound 0.002 µM
  relative viability: 1.09
[19]; first compound 0.006325 µM
  relative viability: 1.14
[19]; first compound 0.02 µM
  relative viability: 0.0229
[19]; first compound 0.06325 µM
  relative viability: 0.011
[19]; first compound 0.2 µM
  relative viability: 0.0138
[20]; first compound 0.002 µM
  relative viability: 0.979
[20]; first compound 0.006325 µM
  relative viability: 0.94
[20]; first compound 0.02 µM
  relative viability: 0.818
[20]; first compound 0.06325 µM
  relative viability: 0.509
[20]; first compound 0.2 µM
  relative viability: 0.344

From the supplement of paper PMC10307832
